Data: PMC8998618, “A Pharmacokinetic and Metabolism Study of the TRPC6 Inhibitor SH045 in Mice by LC-MS/MS” (International Journal of Molecular Sciences, 2022)
Like-named read-outs stand apart in the source and are kept apart here.

Experiment: plasma pharmacokinetics after single i.v. and p.o. administration, NCA
Format: in vivo, mice
Settings: for increase in AUCinf with 10-fold dosing / increase in cmax with 10-fold dosing: 20 vs 2 mg/kg BW; for Cmax / Tmax / AUC(0-inf) / AUC(0-t) / MRT / half-life / bioavailability / CL/F / Vd/F / AUCextra / Vz/F: plasma; for bioavailability: from AUCinf, read-out: oral bioavailability (F); for Vd/F: read-out: Vz/F
Procedure: Analysis of SH045 in samples from plasma, tissue, urine, and microsomal incubations was performed as previously described. Details are described in Supplementary Materials SM2.
Male C57BL/6 mice (25–30 g BW, Charles River, Sulzfeld, Germany) housed in groups under standard conditions and allowed access to lab chow and water ad libitum were used. The in vivo experiments were performed according to the national regulations of animal welfare and were ethically approved by the local committee on animal welfare and the local authorities. Animal experiments were performed under strict consideration of the 3R principles, fully complying with the ARRIVE guidelines. For single SH045 administration mice were assigned to four groups of 12 animals each: 2 and 20 mg/kg BW applied via the i.v. and the p.o. route, respectively. Due to the recommended limited volume for blood collection, each mouse was assigned to a maximum of five different time points each out of 8 (for p.o.) and 9 (for i.v.) for blood collection resulting in six independent plasma concentration values per time point.
SH045 was freshly prepared with DMSO (final concentration 0.5%) and Kolliphor® EL (5% in water). At 7:00 a.m., one hour before drug administration, food was removed. For oral gavage and for i.v. administration into the tail vein the respective dose was applied in a volume of 3 mL/kg BW.
Via heparin-coated catheters a maximum of 50 µL blood was collected from the tail vein at 0.25, 0.5, 1, 2, 3, 4, 6, 8, or 24 h after administration and immediately centrifuged at 4000× g at 4 °C for 10 min. For repeated administration 20 mg/kg BW SH045 were administered at 8:00 a.m. on five consecutive days, once a day. Blood was taken 1 h and 24 h after drug administration. Tissue samples were harvested from isoflurane-euthanized animals at indicated time points. Mice were transcardially perfused with PBS and dissected tissues were washed to remove remaining blood. Plasma and tissue samples were stored at −80 °C until analysis. Urine was collected by bladder puncture at indicated time points.
Pharmacokinetics parameters for SH045 were determined based on non-compartmental model analysis (NCA) using the Phoenix WinNonlin Software 8.3 (Certara, Princeton, NJ, USA). The slope of the terminal phase of the SH045 concentration-time profile (λz) was estimated as absolute values from ≥3 data points using a log-linear regression analysis. The area under the concentration-time curve (AUC) for the time (t) providing the final measurable concentration (AUClast) was calculated using the mixed log-linear trapezoidal rule (linear up, log down). The AUCinf was computed as AUClast + Clast/λz, where the estimated value of the latest data point is used. The systemic total body clearance from plasma (CLp) was calculated as applied dose divided by AUCinf. MRT was calculated as AUMCinf/AUCinf, where area under the first moment curve (AUMC) was defined as area under the curve of the product of time and the plasma drug concentration versus time from zero to infinity. Finally, the AUCextra extrapolates the AUC from the last measured time point to infinity. Vz, the apparent volume of distribution during terminal elimination phase was calculated by Vz = Dose/AUCinf × λz, where λz is the plasma elimination rate constant. The apparent volume of distribution during the terminal phase following extravascular administration based on the fraction of dose absorbed Vz/F = Dose/(AUCinf × λz). The bioavailability (F) of two oral doses SH045 doses were calculated with reference to identical doses administered by intravenous bolus application of SH045 as follows: F = AUCoral/AUCi.v. Tissue binding of SH045 was analyzed exemplarily in lung, liver and kidney homogenate using ultrafiltration. The concentration in the filtrate refers to the unbound SH045 concentration according to tissue binding (%) = (ctot − cfiltrate)/ctotal × 100. For details see Supplementary Materials SM5.

[1] = male, C57BL/6, mouse, iv, mice, single 2.0 mg/kg BW i.v.
[2] = male, C57BL/6, mouse, iv, mice, single 2.0 mg/kg BW i.v., NCA
[3] = male, C57BL/6, mouse, iv, mice, single 20 mg/kg BW i.v.
[4] = male, C57BL/6, mouse, iv, mice, single 20 mg/kg BW i.v., NCA
[5] = male, C57BL/6, mouse, po, mice, single 2.0 mg/kg BW p.o.
[6] = male, C57BL/6, mouse, po, mice, single 2.0 mg/kg BW p.o., NCA
[7] = male, C57BL/6, mouse, po, mice, single 20 mg/kg BW p.o.
[8] = male, C57BL/6, mouse, po, mice, single 20 mg/kg BW p.o., NCA
[9] = mice, single 2.0 mg/kg BW i.v., NCA
[10] = mice, single 20 mg/kg BW i.v., NCA

C=C[C@@](C)(O)CC[C@H]1C(=C)C[C@H](OC(=O)NC)[C@H]2C(C)(C)CCC[C@]12C [SH045, (1S,4S,4aR,8aS)-4-((S)-3-Hydroxy-3-methylpent-4-en-1-yl)-4a,8,8-trimethyl-3-methylenedecahydronaphthalen-1-yl methylcarbamate]
total body clearance following oral administration with regard to oral bioavailability (2 mg/kg p.o.): 95 mL/min/kg
time up to which SH045 is measurable in plasma (20 mg/kg BW i.v.): up to 24 h
corresponding drug plasma concentration (20 mg/kg BW i.v., corresponding to urine period 10–30 min): 3035 nM
corresponding drug plasma concentration (20 mg/kg BW i.v., corresponding to urine period 60–80 min): 1655 nM
corresponding drug plasma concentration (20 mg/kg BW i.v., corresponding to urine period 100–120 min): 560 nM
accumulation of SH045 in plasma after repeated administration (20 mg/kg i.v. five times once a day, 1 and 24 h after the last injection): no accumulation
AUCextra percentage, simulated recalculation including late low concentration values (20 mg/kg i.v., NCA): 0.8%
total body clearance following oral administration with regard to oral bioavailability (20 mg/kg p.o.): 117 mL/min/kg
increase in AUCinf with 10-fold dosing (i.v.): 8.1 fold
increase in cmax with 10-fold dosing (i.v.): 6.5 fold
Cmax [1]: 369 ng/mL
Tmax [1]: 0.25 h
AUC(0-inf) [2]: 351 ng·h/mL
AUC(0-t) [2]: 338 ng·h/mL
MRT [2]: 0.75 h
half-life (male, C57BL/6, mouse, iv, mice, single 2.0 mg/kg BW i.v., NCA, read-out: t1/2 (converted)): 1.28 h
Cmax [3]: 2390 ng/mL
Tmax [3]: 0.25 h
AUC(0-inf) [4]: 2840 ng·h/mL
AUC(0-t) [4]: 2720 ng·h/mL
MRT [4]: 1.52 h
half-life (male, C57BL/6, mouse, iv, mice, single 20 mg/kg BW i.v., NCA, read-out: t1/2 (converted)): 2.37 h
half-life (male, C57BL/6, mouse, intravenous, oral, range over both doses and routes, read-out: mean half-life (t1/2)): 1.2 to 2.4 h
bioavailability (male, C57BL/6, mouse, po, 2 mg/kg p.o.): 24%
bioavailability (male, C57BL/6, mouse, po, 20 mg/kg p.o.): 11%
Cmax [5]: 68.3 ng/mL
Tmax [5]: 0.5 h
AUC(0-inf) [6]: 84.2 ng·h/mL
AUC(0-t) [6]: 69 ng·h/mL
MRT [6]: 1.78 h
CL/F (male, C57BL/6, mouse, po, mice, single 2.0 mg/kg BW p.o., NCA, read-out: CL/F): 396 mL/min/kg
Vd/F [6]: 39.5 L/kg
half-life (male, C57BL/6, mouse, po, mice, single 2.0 mg/kg BW p.o., NCA, read-out: t1/2 (converted)): 1.15 h
Cmax [7]: 341 ng/mL
Tmax [7]: 0.5 h
AUC(0-inf) [8]: 314 ng·h/mL
AUC(0-t) [8]: 298 ng·h/mL
MRT [8]: 1.68 h
CL/F (male, C57BL/6, mouse, po, mice, single 20 mg/kg BW p.o., NCA, read-out: CL/F): 1060 mL/min/kg
Vd/F [8]: 171 L/kg
half-life (male, C57BL/6, mouse, po, mice, single 20 mg/kg BW p.o., NCA, read-out: t1/2 (converted)): 1.86 h
AUCextra [9]: 3.7%
CL/F [9]: 94.9 mL/min/kg
Vz/F [9]: 10.5 L/kg
AUCextra (mice, single 2.0 mg/kg BW p.o., NCA): 17.5%
AUCextra [10]: 4.2%
CL/F [10]: 117.2 mL/min/kg
Vz/F [10]: 24.0 L/kg
AUCextra (mice, single 20 mg/kg BW p.o., NCA): 5.0%
F (mice, single 2.0 mg/kg BW i.v. (reference route)): 1.0
F (mice, single 2.0 mg/kg BW p.o., F = AUCoral/AUCi.v.): 0.24
F (mice, single 20 mg/kg BW i.v. (reference route)): 1.0
F (mice, single 20 mg/kg BW p.o., F = AUCoral/AUCi.v.): 0.11
increase in AUCinf with 10-fold dosing (oral): 3.7 fold
increase in cmax with 10-fold dosing (oral): 5.0 fold
time up to which SH045 is measurable in plasma (orally): up to 6 h
